Experimental data from patent publication US8513161B2, “Enhancement of plant growth” (Valent Biosciences Corporation, priority 2007, dated 2013).
Where a name gives a salt, the structure may show the parent alone.

Test system: rice
Experiment: Pouch study of rice, imidacloprid seed treatment with PESA salt solution in pouch
Assay type: in vivo
Protocol: Seed was sieved with a screen of hole size appropriate to remove broken seeds and small trash. Cracked or otherwise damaged seeds were removed. The seed was well mixed, and 50 g samples were weighed into small plastic trays. Seed treatment slurries were made by adding measured amounts of the active ingredients to sufficient water to bring them up to a standard volume, typically 2 ml. A fungicide (Maxim XL; Syngenta Agricultural Products, Greensboro, N.C.), a polymeric binder (CF-Clear; Becker-Underwood, Ames, Iowa), and a colorant (Color Coat Red; Becker-Underwood, Ames, Iowa) were also included in the slurry at label rates. A small aliquot of this slurry was applied to the seed using the Hege 11 coater (Wintersteiger, Salt Lake City, Utah) with a six-inch bowl. The slurry was deposited drop-wise on the spinning disk atomizer using a syringe.
Seeds were placed in germination pouches consisting of germination paper hydrated with sterile water that was an insert in a gas-permeable 16×14 cm plastic pouch (CYG Pouch; Mega International, St. Paul, Minn.). In these examples, in pouch solution evaluation, clothianidin and PESA sodium salt were added to the sterile water in the pouch. Alternatively, imidacloprid or dinotefuran and PESA sodium salt were added to the sterile water in the pouch. The pouches were arranged in a completely randomized block design in growth racks and placed in 19-liter polycarbonate food storage containers (Rubbermaid Commercial Products, Winchester, Va.). The sealed containers were held in an upright growth cabinet maintained at 25 C with a 12 hour light: 12 hour dark photoperiod. After 6 days, the containers were removed from the growth cabinet, and the lengths of the roots and shoot were measured.
Root lengths of the control and combination treatment of 200 grams imidacloprid/100 pounds of seed with 50 mg/liter PESA salt were similar.

## O=C(O)CCC(=O)NCCc1ccccc1 [PESA salt]
PESA salt 50 mg/liter in pouch alone, control 3.3
  shoot length of rice: 3.6 cm
PESA salt 50 mg/liter in pouch alone, control 10.7
  root length of rice: 12.0 cm
Conclusion from Table 7
  safening of rice: safened, rice against imidacloprid-induced root growth inhibition
